≈ marks a conversion by molar mass, not a printed value. Where “and” joins values, the source holds several entries; their conditions need not be identical. Equal entries are not always repeated. Where two headings read alike, the source gives them in different places.
Legend:
M. tuberculosis = test system: M. tuberculosis; set-up: method as in http://www.pathogenbox.org/; details: as reported by MMV, ref http://www.pathogenbox.org/; cited from earlier work
[1] = rat, ref http://www.pathogenbox.org/, cited from earlier work
M. abscessus Bamboo [2] = test: Dose-response growth inhibition (broth microdilution); assay type: cell-based, Mycobacterium abscessus; details: Mycobacteroides abscessus, 72 h
M. tuberculosis H37Rv = test: as above; assay type: cell-based; details: Mycobacterium tuberculosis, H37RV, 168 h
M. avium 11 [3] = test: as above; assay type: cell-based, Mycobacterium avium; details: Mycobacterium avium, 11, 96 h
M. abscessus Bamboo [4] = test: Bactericidal assay (CFU, fold kill); assay type: cell-based, Mycobacterium abscessus; details: 10^7 CFU/mL exposed to MIC90 for 3 days, CFU vs starting inoculum
M. avium = details: cited from earlier work
M. abscessus = details: cited from earlier work
M. avium 11 [5] = test: Single point growth inhibition screening assay; assay type: cell-based, Mycobacterium avium; details: M. avium 11, 20 μM, 4 days
[6] = ref Brown-Elliott et al., 2003, Cavusoglu et al., 2007, Aziz et al., 2017

Which “Reported MIC” value (M. tuberculosis) does the source give for `Cc1ccccc1CN1CCC(O)(c2ccc(Cl)c(C(F)(F)F)c2)CC1` [MMV688846] here?
Its value is 0.4 µM.

What about the AUCinf ([1]; IV 1 mg/kg, mean n = 2) of the same molecule?
Its AUCinf is 0.464 µg·h/mL.

And the AUClast ([1]; IV 1 mg/kg, mean n = 2)?
Its AUClast is 0.423 µg·h/mL.

What about the C0 ([1]; IV 1 mg/kg, mean n = 2) of the same molecule?
Its C0 is 0.563 µg/mL.

What about the Cl ([1]; IV 1 mg/kg, mean n = 2) of the same molecule?
Its Cl is 2.21 L/h/kg.

What about the Vss ([1]; IV 1 mg/kg, mean n = 2) of the same molecule?
The Vss was 14.4 L/kg.

And the t1/2 ([1]; IV 1 mg/kg, mean n = 2)?
Its t1/2 is 9.78 h.

And the “%F” value ([1]; PO 5 mg/kg vs IV 1 mg/kg)?
Its value is under 1%.

What about the Cmax ([1]; PO 5 mg/kg, mean n = 2, BLQ = < 1 ng/mL) of the same molecule?
The Cmax was 0.00319 µg/mL.

And the AUCinf ([1]; PO 5 mg/kg, mean n = 2)?
Its AUCinf is 0.0275 µg·h/mL.

And the AUClast ([1]; PO 5 mg/kg, mean n = 2)?
Its AUClast is 0.0181 µg·h/mL.

And the t1/2 ([1]; PO 5 mg/kg, mean n = 2)?
Its t1/2 is 4.6 h.

And the tmax ([1]; PO 5 mg/kg, mean n = 2)?
The tmax was 1.5 h.

And the MIC50 (M. abscessus Bamboo [2])?
Its MIC50 is 0.7 µM (≈ 0.269 µg/mL).

What about the MIC90 (M. abscessus Bamboo [2]) of the same molecule?
The MIC90 was 1.5 µM (≈ 0.576 µg/mL).

And the MIC50 (M. tuberculosis H37Rv)?
Its MIC50 is 0.2 µM (≈ 0.0768 µg/mL).

And the MIC90 (M. tuberculosis H37Rv)?
The MIC90 was 0.6 µM (≈ 0.23 µg/mL).

What about the MIC50 (M. avium 11 [3]) of the same molecule?
The MIC50 was 20 µM (≈ 7.68 µg/mL).

And the IC90 (M. avium 11 [3]; read-out: MIC90)?
Its IC90 is over 50 µM.

What about the “Fold kill at MIC90” value (M. abscessus Bamboo [4]) of the same molecule?
The value was 10 fold.

For `CC(C)=CCC/C(C)=C/CNCCNC1C2CC3CC(C2)CC1C3` (stereo not shown) [SQ109], which MIC (M. avium; ref Sacksteder et al., 2012) is on record?
The MIC was 4–16 mg/L and 12–48 μM.

What about the MIC (M. abscessus; ref Sacksteder et al., 2012) of the same molecule?
Its MIC is 4–16 mg/L and 12–48 μM.

Which “Activity in primary screen (hit = equal or more than 80% growth inhibition)” value (M. avium 11 [5]) does the source give for `CC(C)/N=c1\cc2n(-c3ccc(Cl)cc3)c3ccccc3nc-2cc1Nc1ccc(Cl)cc1` [clofazimine] here?
Its value is “M. avium-specific hits”.

With `C[C@]1(COc2ccc(N3CCC(Oc4ccc(OC(F)(F)F)cc4)CC3)cc2)Cn2cc([N+](=O)[O-])nc2O1` [delamanid] as the molecule, how does the “Activity in primary screen (hit = equal or more than 80% growth inhibition)” value (M. avium 11 [5]) read?
The value was “M. avium-specific hits”.

Which MIC (M. abscessus; ref Lavollay et al., 2014) does the source give for `C[C@@H](O)[C@H]1C(=O)N2C(C(=O)O)=C(SCCN=CN)C[C@H]12` [imipenem] here?
Its MIC is “around 27 μM and ~8 mg/L”.

What does the source list for `CC(=O)NC[C@H]1CN(c2ccc(N3CCOCC3)c(F)c2)C(=O)O1` [linezolid]?
MIC90 (M. avium; [6]): 22 µM (≈ 7.42 µg/mL); MIC90 (M. abscessus; [6]): 36 µM (≈ 12.1 µg/mL)

For `OC(c1cc(C(F)(F)F)nc2c(C(F)(F)F)cccc12)C1CCCCN1` (stereo not shown) [mefloquine], which “Activity in primary screen (hit = equal or more than 80% growth inhibition)” value (M. avium 11 [5]) is on record?
The value was “M. avium-specific hits”.

Which “Activity in primary screen (hit = equal or more than 80% growth inhibition)” value (M. avium 11 [5]) does the source give for `CO[C@H]1/C=C/O[C@@]2(C)Oc3c(C)c(O)c4c(O)c(c(/C=N/N5CCN(C)CC5)c(O)c4c3C2=O)NC(=O)/C(C)=C\C=C\[C@H](C)[C@H](O)[C@@H](C)[C@@H](O)[C@@H](C)[C@H](OC(C)=O)[C@@H]1C` [rifampicin] here?
Its value is “M. avium-specific hits”.

What about the MIC (M. abscessus; ref Aziz et al., 2017) of the same molecule?
Its MIC is at least 37 µM.

For `[H]/N=C(/N)N[C@H]1[C@H](O)[C@@H](O)[C@H](O[C@@H]2O[C@@H](C)[C@](O)(C=O)[C@H]2O[C@@H]2O[C@@H](CO)[C@H](O)[C@@H](O)[C@@H]2NC)[C@@H](N/C(N)=N\[H])[C@@H]1O` [streptomycin], which “Activity in primary screen (hit = equal or more than 80% growth inhibition)” value (M. avium 11 [5]) is on record?
The value was “M. avium-specific hits”.

From publication PMC5559473, “Screening of TB Actives for Activity against Nontuberculous Mycobacteria Delivers High Hit Rates” (Frontiers in Microbiology, 2017)
